In one experiment the test system is ATCC 824. The note with it: 12 g/L butanol. As to the method: (§1) Butanol tolerances of different strains are investigated and compared according to the maximal specific growth rates achieved under the challenge of different concentrations of butanol. Seed cultures are prepared the same way as those used for fermentor fermentation. Then, seeds of different strains are inoculated into 10 ml of CGM medium in serum tubes supplemented with different concentrations of butanol. The tubes are incubated at 37° C. and optical densities (OD600) are measured every 2 h. Growth curves may be drawn according to the OD600 data. Maximal specific growth rates (h^−1) of different strains under different butanol concentrations may be calculated based on the growth curves.

The test system of a further experiment is BA 101. The note with it: 12 g/L butanol. As to the method:
as §1

Experiment [1] has as its system C. acetobutylicum ATCC 55025 (parental strain). The procedure:
as §1

Another experiment deals with JB200. The note with it: CGM medium, 37° C., OD600. The procedure: as §1
For a further experiment, the system named is NCIMB 8052. The note with it: 12 g/L butanol. The procedure:
as §1

As to butanol, the “growth in the presence of butanol” value in the experiment on ATCC 824, in the experiment on BA 101 and in the experiment with NCIMB 8052 was “none of them could grow” throughout. Besides, in experiment [1] (CGM medium, 37° C., OD600), the “butanol concentration above which cell growth stopped” value was “higher than 12 g/L”. Besides, the “butanol concentration at which growth usually stops (cells lysed)” value in experiment [1] (general statement, parental strain) is 10-12 g/L. Besides, the “butanol concentration at which cells still grew” value with JB200 is reported as 16 g/L.

These data come from patent US8450093B1, “Adaptive engineering of clostridium for increased butanol production” (The Ohio State University, priority 2010, dated 2013).
